Test results reported in PMC6264741, “Chemical Constituents and Biological Studies of the Leaves of Grevillea robusta” (Molecules, 2011).
Like-named read-outs stand apart in the source and are kept apart here. Blank lines part the entries; values can stand above or below the molecule they belong to. Numbered stars: 1 amine (or outer) side, 2 acyl side, 3 side chain; on linkers, the order of the positions; unused ones are H or OH. Bridge positions count the residues as written; N and C are the ends. Square brackets hold non-standard residues; d marks the D form. Peptide text beside a SMILES is read from it. I, II: the chains in the order shown. Actinocin(9to1) = Cc1c2oc3c(C)ccc(C(=O)[*:1])c3nc-2c(C(=O)[*:2])c(N)c1=O; NMeV = CN[C@H](C(=O)O)C(C)C; Sar = CNCC(=O)O

Experiments:
[1] = DPPH free radical scavenging activity assay; set-up: DPPH inhibition activity (Inhibition %): dose or concentration left out as unconfirmed; conditions: mean ± S.E.M (n = 3); for IC50: 0.1 mM DPPH in ethanol, 30 min, 517 nm, read-out: DPPH inhibition activity IC50
Experimental: The free radical scavenging activity of compounds 1, 4, 5, 7, 8, 11−18, and 20 was measured with DPPH^• using the method of Chiu et al.. Briefly, 0.1 mM solution of DPPH^• in ethanol was prepared, and sample (20 μL) was added. The sample was thoroughly mixed and kept in the dark for 30 min. The absorbance was measured at 517 nm on a Quant universal microplate spectrophotometer. α-Tocopherol (Sigma Chemical Co.) was used as a standard agent. A lower absorbance of the reaction mixture indicated a higher free radical scavenging activity. The sample concentration that was used to provide the IC50 data was calculated from a graph plotting inhibition percentage against sample concentration. Tests were performed in triplicate.

[2] = system: SF-268 human central nervous system tumor cell line; test: Cytotoxicity assay, SF-268; assay type: cell-based; conditions: mean ± SD (n = 3–8)
Experimental: (§1) Compounds 1−8, 11−18, 20, and 21 were subjected to cytotoxic evaluation. The clinically applied anticancer agent, actinomycin D, was used as a positive control for the cytotoxicity assays.
(§2) The cytotoxicity assay was carried out according to procedures that have been previously described in the literature.

[3] = system: NCI-H460 human lung tumor cell line; test: Cytotoxicity assay, NCI-H460; assay type: cell-based; conditions: mean ± SD (n = 3–8)
Experimental: as §1, §2

[4] = system: MCF-7 human breast tumor cell line; test: Cytotoxicity assay, MCF-7; assay type: cell-based; conditions: MCF7, mean ± SD (n = 3–8)
Experimental: as §1, §2

[5] = system: SF-268 human central nervous system tumor cell line; set-up: method as in PMID 20704331; conditions: positive control; cited from earlier work
[6] = system: MCF-7 human breast tumor cell line; set-up: method as in PMID 20704331; conditions: positive control; cited from earlier work
[7] = system: NCI-H460 human lung tumor cell line; set-up: method as in PMID 20704331; conditions: positive control; cited from earlier work

Structure (SMILES): CCCCCCCCCCCCCCCc1cc(O)cc(O)c1 [Compound 20, cis-5-n-pentadecylresorcinol]
DPPH inhibition activity (Inhibition %) [1]: (21.32 ± 0.21) %

Structure (SMILES): COc1cc(O)cc(CCCCCCC/C=C/CCCCCc2cc(O)cc(O)c2)c1 [Compound 16, dehydrobisgravillol]
IC50 [1]: 28.9 ± 0.67 µM

Structure (SMILES): Oc1cc2cc(c1)Oc1c(O)cc(cc1O)[C@H](O)CCCCCCCCCCCCC2 [Compound 5, gravicycle]
IC50 [1]: 25.7 ± 0.32 µM

Structure (SMILES): COC(=O)/C=C/C1(O)C=CC(=O)C=C1 [Compound 1, 4-hydroxy-4-(3-methoxycarbonyl)ethenylcyclohexadien-1-one]
IC50 [2]: 5.9 ± 0.1 µM
IC50 [3]: 10.8 ± 2.3 µM
IC50 [4]: 15 ± 3 µM
IC50 [1]: 23 ± 0.53 µM

Structure (SMILES): Oc1cc2cc(c1)Oc1c(O)cc(cc1O)CCCCCCCCCCCCCC2 [Compound 7, robustol]
IC50 [1]: 28.8 ± 0.42 µM

Structure (SMILES): CCOc1ccc(O)c(C=CC(=O)OC)c1 [Compound 3, methyl 5-ethoxy-2-hydroxycinnamate]
IC50 [2]: > 50 µM
IC50 [3]: > 50 µM
melting point: 98 to 100 °C
IC50 [4]: > 50 µM

Structure (SMILES): CCCCCCCCCCCCCCC[C@H]1CC(=O)C[C@@H](O)C1 (relative stereo) [Compound 2, cis-3-hydroxy-5-pentadecylcyclohexanone]
IC50 [2]: 20.5 ± 0.6 µM
IC50 [3]: 42.6 ± 3.6 µM
melting point: 62 to 64 °C
IC50 [4]: 26.7 ± 1.9 µM

Structure (SMILES): Oc1cc(O)cc(CCCCCC=CCCCCCCCc2cc(O)cc(O)c2)c1 [Compound 18, 5-[14'-(3'',5''-dihydroxyphenyl)-cis-tetradec-6'-en-1'-yl]benzene-1,3-diol]
IC50 [1]: 35.2 ± 0.48 µM

Structure (SMILES): Oc1cc(O)cc(CCCCCCCCCCCCCCc2cc(O)cc(O)c2)c1 [Compound 17, bis-norstriatol]
IC50 [1]: 31.3 ± 0.34 µM

Structure (SMILES): Cc1c2oc3c(C)ccc(C(=O)N[C@@H]4C(=O)N[C@H](C(C)C)C(=O)N5CCC[C@H]5C(=O)N(C)CC(=O)N(C)[C@@H](C(C)C)C(=O)O[C@@H]4C)c3nc-2c(C(=O)N[C@@H]2C(=O)N[C@H](C(C)C)C(=O)N3CCC[C@H]3C(=O)N(C)CC(=O)N(C)[C@@H](C(C)C)C(=O)O[C@@H]2C)c(N)c1=O [Actinomycin D, actinomycin D] (I: T[dV]P[Sar][NMeV] / II: T[dV]P[Sar][NMeV]; ester I:1-I:C, II:1-II:C; linker I:N-II:N via Actinocin(9to1))
IC50 [5]: 0.016 µM
IC50 [6]: 0.103 µM
IC50 [7]: 0.008 µM

Structure (SMILES): COc1cc(O)cc(CCCCCCCCCCCCCCc2cc(O)cc(O)c2)c1 [Compound 15, bisgravillol]
IC50 [1]: 36.7 ± 0.43 µM

Structure (SMILES): COc1cc(O)cc2c1-c1c(O)cc(cc1O)CCCCCCCCCCCCCC2 [Compound 11, methylgraviphane]
DPPH inhibition activity (Inhibition %) [1]: (28.21 ± 0.23) %

The next lines start with results.

IC50 [1]: 3.96 ± 0.55 µM
Structure (SMILES): Oc1cc(O)c2c(c1)CCCCCCCCCCCCCCc1cc(O)c-2c(O)c1 [Compound 13, graviphane]

IC50 [1]: 0.53 ± 0.09 µM
Structure (SMILES): COC(=O)C=Cc1cc(O)ccc1O [Compound 4, methyl 2,5-dihydroxycinnamate]
IC50 [2]: > 50 µM
IC50 [3]: > 50 µM
IC50 [4]: > 50 µM

IC50 [1]: 3.1 ± 0.05 µM
Structure (SMILES): Cc1c(C)c2c(c(C)c1O)CC[C@@](C)(CCC[C@H](C)CCC[C@H](C)CCCC(C)C)O2 [α-tocopherol, reference compound]

IC50 [1]: 2.05 ± 0.22 µM
Structure (SMILES): Oc1cc(O)c2c(c1)CCCCC/C=C/CCCCCCCc1cc(O)c-2c(O)c1 [Compound 14, dehydrograviphane]

IC50 [1]: 15.7 ± 0.31 µM
Structure (SMILES): COc1cc(O)cc2c1-c1c(O)cc(cc1O)CCCCCCCC=CCCCCC2 [Compound 12, methyldehydrograviphane]

IC50 [1]: 11.8 ± 0.88 µM
Structure (SMILES): Oc1cc2cc(c1)Oc1c(O)cc(cc1O)CCCCCCCC=CCCCCC2 [Compound 8, dehydrobustol-A]
